# Measurements: patent publication US6130053A, “Method for selecting compounds for inhibition of neoplastic lesions” (priority 1999, dated 2000)
# What was measured:
# [1] = biological target: T1, COX-I (purified cyclooxygenase Type 1) (Ovis aries, UniProt P05979); assay: COX inhibition assay, purified cyclooxygenase (Type 1); type: biochemical, ram; conditions: FIG. 4
# T1 construct: purified cyclooxygenase from ram seminal vesicles; from tissue; host or cells: ram seminal vesicles
# T1 sequence (P05979 25-600): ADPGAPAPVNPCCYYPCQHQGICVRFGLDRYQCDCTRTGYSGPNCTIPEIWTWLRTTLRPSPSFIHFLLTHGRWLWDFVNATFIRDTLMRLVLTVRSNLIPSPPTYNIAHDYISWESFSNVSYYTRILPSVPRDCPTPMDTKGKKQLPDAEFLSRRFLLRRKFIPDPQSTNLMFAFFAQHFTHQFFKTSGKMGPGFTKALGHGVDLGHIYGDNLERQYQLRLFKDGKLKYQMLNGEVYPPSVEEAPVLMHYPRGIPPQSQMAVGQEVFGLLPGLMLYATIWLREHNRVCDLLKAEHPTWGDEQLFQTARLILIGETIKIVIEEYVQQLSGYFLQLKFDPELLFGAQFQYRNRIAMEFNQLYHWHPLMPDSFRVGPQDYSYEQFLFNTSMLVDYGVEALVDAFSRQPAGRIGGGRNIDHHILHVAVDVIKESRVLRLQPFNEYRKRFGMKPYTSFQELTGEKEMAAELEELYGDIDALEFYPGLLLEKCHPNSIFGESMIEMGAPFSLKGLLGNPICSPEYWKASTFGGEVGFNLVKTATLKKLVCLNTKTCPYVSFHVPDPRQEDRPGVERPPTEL
# β-catenin in SW480 cells = assay: β-catenin level by Western blot in SW480 cells; type: cell-based, human; conditions: 48 hours
# Experimental: SW480 cells were treated with exisulind or vehicle (0.1% DMSO) for 48 hours. 50 μg supernatant of each cell lysates were loaded to 10% SDS-gel and blotted to nitrocellulose membrane, and the membrane was probed with rabbit-anti-β-catenin and rabbit anti-PKG antibodies.
# This observation was made by culturing SW480 cells with either 200-600 μM exisulind or vehicle (0.1% DMSO). The cells are harvested 48 hours post treatment and processed for immunoblotting. Immuno-reactive protein can be detected by western blot. […] Thus, using PKG activity in neoplastia as a screening tool to select compounds as anti-neoplastics is useful.
# [2] = test system: PKG activity in SW480 cells; assay: PKG activity in SW480 cells (phosphorylation of GST-cGB-PDE5); type: cell-based, human; conditions: 48 hrs; with and without added cGMP; exisulind 200-600 μM, E4021 0.1-10 μM
# Experimental: Two different types of PDE inhibitors were evaluated for their effects on PKG in neoplastic cells. […], exisulind, was evaluated since it is anti-neoplastic. […] No. 09/173,375 to Liu et al filed Oct. 15, 1998. To test the effect of cGMP-specific PDE inhibition on neoplasia containing the APC mutation, SW480 colon cancer cells were employed. SW 480 is known to contain the APC mutation. […] The liquid media are aspirated from the dishes (the cells will attach themselves to the dishes). […] Immediately after the cell lysis buffer is added, the lysed cells are collected by scraping the cells off each dish. The cell lysate from each dish is transferred to a microfuge tube, and the microfuge tubes are incubated at 4° C. for 15 minutes while gently agitating the microfuge tubes to allow the cells to lyse completely. After lysis is complete, the microfuge tubes are centrifuged full speed (14,000 r.p.m.) for 15 minutes. The supernatant from each microfuge tube is transferred to a fresh microfuge tube. A protein assay is then performed on the contents of each microfuge tube because the amount of total protein will be greater in the control than in the drug-treated samples, if the drug inhibits cell growth. Obviously, if the drug does work, the total protein in the drug-treated samples should be […] control. […]
smiles,measurement,setting,value
"CC1=C(CC(=O)O)c2cc(F)ccc2/C1=C\c1ccc(S(C)(=O)=O)cc1 [Exisulind, 5-fluoro-2-methyl-1-(p-methylsulfonylbenzylidene)-3-indenylacetic acid]",IC50,[1],> 10 mM
same,β-catenin level by Western blot,β-catenin in SW480 cells,drop of β-catenin
same,PKG activity relative to control,[2],causes PKG activity to increase in a dose-dependent manner
